# Patent US11339144B2 (Navitor Pharmaceuticals, Inc., priority 2017, dated 2022)
# Columns and labels:
# [1] = target: HA-GST-Rheb (GTP-γ-S loaded) activating mTORC1 (Homo sapiens (Human), UniProt Q15382); experiment: Rheb-dependent in vitro kinase assay (Rheb-IVK; LanthaScreen or Western readout); type: biochemical; conditions: Rheb-dependent in vitro kinase assay; read-out: IVK IC50
# [2] = target: Rheb (Homo sapiens (Human), UniProt Q15382); experiment: Affinity Selection Mass Spectrometry (ASMS); type: binding; conditions: affinity (R3/R0) in Affinity Selection Mass Spectrometry assay
# Protocol: Method 2 (Affinity Selection Mass Spectrometry
# Protein: Rheb (19 KDa) in the following buffer: 20 mM Tris, pH 8.0, 200 mM NaCl, 2 mM DTT, 5 mM MgCl2 was prepared as under.
# Human Rheb protein (I-169) was purified from BL21 (DE3) E. coli using a His-Smt-Rheb expression vector. The cell paste was lysed in lysis buffer (50 mM HEPES pH 7.5, 0.5 M NaCl, 5% Glycerol, 1% CHAPS, EDTA free protease inhibitor tablets, lysozyme to 1 mg/mL, benzonase 250U), sonicated, and purified on a HiTrap Ni Chelating Column (GE Healthcare) using the following buffer: 50 mM HEPES pH 7.5, 0.5 M NaCl, 5% Glycerol, and imidazole increasing in concentration from 5 mM to 500 mM. The His-Smt tag was cleaved using a U1p1 enzyme and dialyzed into 50 mM HEPES pH 7.5, 0.5 M NaCl, 5% Glycerol. The resultant protein was again purified on a Ni Chelating column to remove the U1p1 enzyme and His-Smt tag and then purified by size exclusion chromatography on a Sephacryl S-100 26/60 column into the following final buffer: 20 mM NaPhos pH 7.0, 100 mM NaCl, 5 mM MgCl2, 2 mM TCEP.
# Concentrations: 60 μM Rheb, 180 μM GDP and 2 μM of each compound,
# Ultrafiltration Filter (Sartorius, Germany) MW cutoff: 10 KDa
# • (a) Sample preparation: Prepare sample for each group in 1.5 mL microcentrifuge tube according to the experimental design, total volume 550 μL. In a standard ASMS experiment there are two groups: Protein plus (P+L+) and protein minus (P−L+). • (b) Transfer 50 μL from the 550 μL to a vial as R0 sample. Incubate the rest solution for 30 min at room temperature. Then transfer the 500 μL into an ultrafiltration filter tube and centrifuge at 12×10^3 rpm for ˜10 min, leave about 50 μL solution (otherwise adjust this time). • (c) Add incubation buffer to the ultrafiltration filter tube to about 500 μL. Stir gently and centrifuge mixtures as above, leave about 50 μL solution. • (d) Repeat the step c. Transfer the remaining 50 μL upper layer solution to a new vial as R^3 sample. Sample Extraction: Add 150 μL MeCN to denature the protein completely. Centrifuge at 12×10^3 rpm for 5 min. Transfer the supernatant into LC-MS auto sampler vials for LC-MS analysis (5 uL injection).
# Waters Acquity UPLC system, Waters ACQUITY UPLC BEH C18 column (2.1×50 mm, 1.7 μM); Mobile phase A: 0.1% formic acid solution, B: MeCN; 0.3 mL/min, 5 μL injection, gradient elution (Table 5).
# Waters Synapt G1 Q-TOF system, positive or negative ion scan modes; Capillary voltage: 3.0 kV; Method: MSE; Mass range: m/z=100-1000; Source temperature: 120° C.; Desolvation temperature: 400° C.; Collision voltage: 35 V; Sampling Cone: 35 V; Extraction Cone: 4.0 V; Cone Gas: 50 L/h; Desolvation Gas: 800 L/h.
# Sequence of HA-GST-Rheb (GTP-γ-S loaded) activating mTORC1 (Q15382 1-181): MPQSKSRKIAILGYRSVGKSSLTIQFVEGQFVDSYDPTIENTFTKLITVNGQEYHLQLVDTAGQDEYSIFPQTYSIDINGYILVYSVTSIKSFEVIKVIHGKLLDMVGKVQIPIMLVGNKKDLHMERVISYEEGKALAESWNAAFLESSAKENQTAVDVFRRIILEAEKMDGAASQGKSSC
# Sequence of Rheb (Q15382 1-169 limits assumed): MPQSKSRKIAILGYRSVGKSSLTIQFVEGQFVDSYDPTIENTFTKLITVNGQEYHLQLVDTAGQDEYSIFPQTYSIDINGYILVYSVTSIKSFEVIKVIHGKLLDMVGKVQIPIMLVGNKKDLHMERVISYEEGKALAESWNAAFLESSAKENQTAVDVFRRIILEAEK
SMILES,IC50 [1] [µM],ASMS (R3/R0) [2]
"CC(C)(C)c1cccc(Sc2cc(Cl)cc3[nH]c(C(=O)O)cc23)c1 [I-65, 4-(3-tert-butylphenylthio)-6-chloro-1H-indole-2-carboxylic acid]",< 10,B (an affinity (R3/R0) between 100% and 20%)
CC(C)(C)OC(=O)c1ccc(Cn2c(-c3ccncc3)nc3cc(Cl)c(Cl)cc32)cc1 [I-374],> 100,C (an affinity (R3/R0)<20%)
OCc1nc2c(OCC3CC=CC3)c(Cl)c(Cl)cc2[nH]1 [I-377],> 100,B (an affinity (R3/R0) between 100% and 20%)
"Cc1ccc(Oc2cc(Cl)cc3[nH]c(CO)cc23)cc1C(F)(F)F [I-82, (6-Chloro-4-(4-methyl-3-(trifluoromethyl)phenoxy)-1H-indol-2-yl)methanol]",< 10,B (an affinity (R3/R0) between 100% and 20%)
O=C1CCC(CNC(=O)c2cc3c(Sc4ccc(Cl)cc4)cc(Cl)cc3[nH]2)N1 (stereo not shown) [I-147],> 100,A (an affinity (R3/R0)>100%)
CN1CC(NC(=O)c2cc3c(Sc4ccc(Cl)cc4Cl)cc(Cl)c(Cl)c3[nH]2)C1 [I-21],> 100,C (an affinity (R3/R0)<20%)
"O=C(O)c1ccc(Cn2c(C(=O)O)cc3c(Br)cc(Oc4ccccc4)cc32)cc1 [I-165, 4-bromo-1-(4-carboxybenzyl)-6-phenoxy-1H-indole-2-carboxylic acid]",10 to 100,B (an affinity (R3/R0) between 100% and 20%)
"O=C(O)c1nc2cc(OCc3ccc(Cl)cc3)c(Cl)c(Cl)c2[nH]1 [I-338, 6,7-dichloro-5-(4-chlorobenzyloxy)-1H-benzo[d]imidazole-2-carboxylic acid]",> 3,B (an affinity (R3/R0) between 100% and 20%)
"OCc1cc2cc(SCc3ccc(Cl)cc3)c(Cl)cc2[nH]1 [I-76, (6-chloro-5-(4-chlorobenzylthio)-1H-indol-2-yl)methanol]",10 to 100,B (an affinity (R3/R0) between 100% and 20%)
"OCc1nc2cc(OCc3cccc(F)c3)c(Cl)cc2[nH]1 [I-484, (6-chloro-5-(3-fluorobenzyloxy)-1H-benzo[d]imidazol-2-yl)methanol]",100 to 300,B (an affinity (R3/R0) between 100% and 20%)
OCc1nc2cc(OCc3ccccc3)c(Cl)cc2n1CC(F)(F)F [I-457],> 100,–
"OCc1nc2cc(OCc3ccc(F)cc3)c(Cl)cc2[nH]1 [I-482, (6-chloro-5-(4-fluorobenzyloxy)-1H-benzo[d]imidazol-2-yl)methanol]",100 to 300,–
Cn1ccc2c(Oc3ccc(F)cc3)cccc21 [I-265],> 100,–
c1ccc(Oc2cccc3nc(-c4ncco4)n(Cc4ccc(-c5nn[nH]n5)cc4)c23)cc1 [I-422],> 100,–
O=S(=O)(c1ccccc1Cl)c1cccc2[nH]ccc12 [I-232],> 100,–
CC(=O)OCCc1cc2c(Oc3ccccc3)c(Cl)ccc2[nH]1 [I-260],> 100,–
N#CCc1nc2c(Oc3ccccc3)cccc2[nH]1 [I-471],> 100,–
Cn1c(CO)cc2c(Oc3cccc(F)c3)cccc21 [I-262],> 100,–
CCn1c(CO)nc2cc(Cl)c(OCc3ccccc3)cc21 [I-488],> 100,–
CCn1c(CO)nc2cc(Cl)c(OCCc3ccccc3)cc21 [I-431],> 100,–
COc1cccc(Sc2cccc3[nH]ccc23)c1 [I-195],> 100,–
N#Cc1ccc(Cn2c(-c3ncco3)nc3cc(Cl)c(Cl)cc32)cc1 [I-453],> 100,–
OCc1cc2c(Oc3ccccc3)cccc2[nH]1 [I-287],> 100,–
"OCc1nc2c(Oc3ccccc3Cl)cccc2n1Cc1nc[nH]n1 [I-407, (1-((1H-1,2,4-triazol-3-yl)methyl)-4-(2-chlorophenoxy)-1H-benzo[d]imidazol-2-yl)methanol]",> 100,–
CCCn1c(CO)nc2cc(Cl)c(OCc3ccccc3)cc21 [I-480],> 100,–
Cn1c(CO)cc2c(Oc3ccccc3F)cccc21 [I-274],> 100,–
OCc1nc2c(Oc3ccccc3)cc(Cl)cc2[nH]1 [I-404],> 100,–
OCc1nc2cc(Cl)c(OCc3ccccc3)cc2n1CC(F)(F)F [I-458],> 100,–
Cc1cc(Oc2ccccc2)cc2[nH]c(CO)cc12 [I-238],> 100,–

# The next lines start with results.
IC50 [1] [µM],SMILES,ASMS (R3/R0) [2]
< 10,"CN(C)C(=O)c1ccc(Cn2c(C(=O)O)cc3c(-c4ccccc4)cc(Sc4ccc(Cl)c(Cl)c4)cc32)cc1 [I-8, 6-(3,4-dichlorophenylthio)-1-(4-(dimethylcarbamoyl)benzyl)-4-phenyl-1H-indole-2-carboxylic acid]",A (an affinity (R3/R0)>100%)
100 to 300,"Fc1ccccc1Oc1cccc2[nH]ccc12 [I-288, 4-(2-fluorophenoxy)-1H-indole]",C (an affinity (R3/R0)<20%)
< 10,"O=C(O)c1cc2c(Sc3ccc(Cl)c(Cl)c3)cc(Sc3ccc(Cl)c(Cl)c3)cc2[nH]1 [I-88, 4,6-bis(3,4-dichlorophenylthio)-1H-indole-2-carboxylic acid]",B (an affinity (R3/R0) between 100% and 20%)
10 to 100,"O=C(O)c1cc2c(Oc3cc(Cl)ccc3Cl)cc(Cl)cc2[nH]1 [I-172, 6-Chloro-4-(2,5-dichlorophenoxy)-1H-indole-2-carboxylic acid]",B (an affinity (R3/R0) between 100% and 20%)
> 100,O=C(NCC1CCOCC1)c1cc2c(Sc3ccc(Cl)cc3)cc(Cl)cc2[nH]1 [I-143],B (an affinity (R3/R0) between 100% and 20%)
> 100,CN1CCC(CCNC(=O)c2cc3c(Sc4ccc(Cl)cc4Cl)cc(Cl)c(Cl)c3[nH]2)CC1 [I-27],B (an affinity (R3/R0) between 100% and 20%)
100 to 300,"c1ccc(Oc2cccc3[nH]ccc23)cc1 [I-296, 4-phenoxy-1H-indole]",C (an affinity (R3/R0)<20%)
> 100,Cn1ccc2c(Oc3cccc(Cl)c3)cccc21 [I-270],–
> 100,N#CCc1nc2c(Oc3ccccc3)c(Cl)ccc2[nH]1 [I-441],–
> 100,OCc1nc2cc(Cl)c(Cl)c(OCC3CCCCN3)c2[nH]1 (stereo not shown) [I-462],–
> 100,NC(=O)c1cccc(Cn2c(-c3ncco3)nc3cc(Cl)c(Cl)cc32)c1 [I-447],–
> 100,Clc1ccc(Cc2cccc3[nH]ccc23)cc1 [I-179],–
> 100,Clc1cc2nc(-c3ncco3)n(Cc3cccc(-c4nn[nH]n4)c3)c2cc1Cl [I-438],–
100 to 300,"OCc1cc2c(Oc3ccccc3Cl)cccc2[nH]1 [I-276, (4-(2-chlorophenoxy)-1H-indol-2-yl)methanol]",–
> 100,OCc1nc2cc(Cl)c(Cl)c(OCC3CCNC3)c2[nH]1 (stereo not shown) [I-460],–
> 100,NC(=O)c1ccc(Cn2c(-c3ncco3)nc3cc(Cl)c(Cl)cc32)cc1 [I-451],–
> 100,CCn1c(CO)nc2cc(OCc3ccc(Cl)cc3)c(Cl)cc21 [I-449],–
> 100,Cc1cc2c(Sc3ccc(Cl)cc3)cccc2[nH]1 [I-203],–
> 100,CCn1c(CO)nc2cc(OCc3ccc(F)cc3)c(Cl)cc21 [I-444],–
> 100,Nc1ccnc(COc2c(Cl)c(Cl)cc3[nH]c(CO)nc23)n1 [I-420],–
> 100,OCc1nc2c(OC[C@H]3CCCC[C@@H]3O)c(Cl)c(Cl)cc2n1Cc1cc(Cl)ccc1Cl [I-393],–
10 to 100,"Clc1ccc(Sc2cc(Cl)c3cc[nH]c3c2)cc1 [I-201, 4-chloro-6-(4-chlorophenylthio)-1H-indole]",–
100 to 300,"CCn1cnc2cc(OCc3ccccc3)c(Cl)cc21 [I-434, 5-(benzyloxy)-6-chloro-1-ethyl-1H-benzo[d]imidazole]",–
> 100,OCc1cc2cc(Sc3ccccc3)ccc2n1Cc1nc[nH]n1 [I-181],–
> 100,Cn1ccc2c(Oc3ccc(Cl)cc3)cccc21 [I-268],–
> 100,CCn1c(CO)nc2cc(Cl)c(OCc3ccccc3F)cc21 [I-454],–
> 100,CNC(=O)c1ccc(Sc2cccc3[nH]ccc23)cc1 [I-184],–
